Results: patent US11427591B2, “Kinase inhibitors” (priority 2018, dated 2022)
Read-outs that look alike come from different tables or passages of the source.

Legend:
[1] = system: Human hepatic stellate cell LX-2; experiment: LX-2 Fibrosis Assay (inhibition of collagen production, TGF-b stimulated); format: cell-based
Protocol: Human hepatic stellate cell LX-2 were grown in DMEM (Invitrogen, 11960) supplied with 1% MEM Non-Essential Amino Acids (Invitrogen, 11140-050), 2% fetal bovine serum (Hyclone, SV30087.03), Penicillin (100 U/mL)-streptomycin (100 μg/mL) (Millipore, TMS-AB2-C) and 2 mM L-Glutamine (Invitrogen, 25030-001). After the cells grew in 12-well plates for 24 hours, the cell culture medium was changed to the same as above except using 0.4% fetal bovine serum. After 20 hour growth in the reduced serum medium, the cells were treated with indicated doses of compounds for 30 minutes. Subsequently, the cells were stimulated with 4 ng/mL TGF-b (R&D Systems, 240-B-002) for 48 hours. The cells were rinsed twice with DPBS before being harvested with 100 μL RIPA buffer (Sigma, R0278) supplemented with protease inhibitor cocktail (Roche, 04693132001) at 4° C. The total protein in each sample was quantified using BCA Protein Assay Kit (Pierce™, 23227) and equal amount of total protein of each sample was subject to Western blot analysis. Antibodies used were mouse anti-α-Actin (SPM332) (sc-365970), mouse anti-CTGF (E5) (sc-365970), and mouse anti-collagen α1 (3G3) (sc-293182), from Santa Cruz Biotechnologies; and mouse anti-GAPDH (6C5) (EMD Millipore, MAB374). […] As such, these compounds be used as inhibitors of fibrosis by inhibiting function of the discoidin domain receptor family.

[2] = system: LX-2 cells; experiment: Cytotoxicity, CellTiter-Glo Luminescent Cell Viability Assay
Protocol: (§1) LX-2 cells were seeded into 96 well plates in the presence of compounds and allowed to grow for 72 hours before CellTiter-Glo® Luminescent Cell Viability Assay was carried out according the manufacturer's instruction.

[3] = system: primary tumor cells freshly isolated from patient derived xenograft tumor model; experiment: Cholangiocarcinoma (bile duct cancer) tumor chemosensitivity assay (TCA), anti-proliferation; format: cell-based; conditions: for Max (%) / Min (%): inhibition rate
Protocol: Cholangiocarcinoma (Bile Duct Cancer)
All the compounds were tested starting from 30 μM, 3-fold serial dilution.
(§2) Add 195 μL of assay medium into each well of the V-bottom plate; then transfer 5 μL of the stock compound solution of each concentration from the stock plate (400× stock). Add 5 μL of DMSO into the Blank and Control wells. Pipette up and down to mix well. This V-plate is designated as the 10× concentrate compound plate.
For cell viability test, add compounds as below. Then incubate the plates at 37° C., 5% CO2, 95% air and 100% relative humidity for 3 days or 6 days. For day 0 plate, add 15 μL of the DMSO-medium into the Control wells. The final DMSO concentration was 0.25%. Proceed to cell viability assay. For TCA plates, add 15 μL of the compound-medium from the 10× concentrate compound plate into the cells in 96-well assay plate according to the plate map. Add 15 μL of the DMSO-medium into the Blank and Control wells. The final DMSO concentration was 0.25%.
The procedures were performed according to the Promega CellTiter-Glo Luminescent Cell Viability Assay Kit (Promega-G7573): Thaw the CellTiter-Glo buffer and equilibrate to room temperature prior to use; Equilibrate the lyophilized CellTiter-Glo Substrate to room temperature prior to use; Transfer the entire liquid volume of CellTiter-Glo Buffer into the amber bottle containing CellTiter-Glo Substrate to reconstitute the lyophilized enzyme/substrate mixture. This forms the CellTiter-Glo Reagent; Mix by gently vortexing to obtain a homogeneous solution; Equilibrate the plate and its contents to room temperature for approximately 30 minutes; Add 75 μL (equal to the half volume of culture medium present in each well) CellTiter-Glo Reagent in each well. Cover plates with aluminum foil to protect from light; Mix contents for 2 minutes on an orbital shaker to induce cell lysis; Allow the plate to incubate at room temperature for 10 minutes to stabilize luminescent signal; and Transfer the mixture of cell and CTG buffer to the detection 96 well plate and record luminescence on the 2104 EnVision plate reader. An ATP standard curve at the same time points is prepared.
Inhibition rate (IR) of the tested compounds was determined by the following formula: IR (%)=(1−(RLU compound−RLU blank)/(RLU control−RLU blank))*100%. The inhibitions of different dose of compound were calculated in Excel file, and then were used to plot inhibition curve and evaluate related parameters, such as Min, Max and IC50. The data were interpreted by GraphPad Prism software. […]

[4] = system: primary tumor cells freshly isolated from LU-01-0523 patient derived xenograft (PDX) tumor model; experiment: Tumor chemosensitivity assay (TCA), anti-proliferation, LU-01-0523; format: cell-based; conditions: for IC50: Homo sapiens
Protocol: (§3) Compound 1 is compared to Gemcitabine, which is a chemotherapy drug used in various types of cancers (e.g., breast cancer, ovarian cancer, non-small cell lung cancer, pancreatic cancer, and bladder cancer). The compounds, at 30 μM, 3 fold serial dilution, are tested in primary tumor cells freshly isolated from PC-07-0024 and LU-01-0523 patient derived xenograft (PDX) tumor model using tumor chemosensitivity assay (TCA).
as §2, with “The study was performed as follows. Add 195” for “Add 195”
(§4) For cell viability test, add compounds as below. Then incubate the plates at 37° C., 5% CO2, 95% air and 100% relative humidity for 3 days or 6 days. For day 0 plate, add 15 μL of the DMSO-medium into the Control wells. The final DMSO concentration was 0.25%. Proceed to cell viability assay. For TCA plates, add 15 μL of the compound-medium from the 10× concentrate compound plate into the cells in 96-well assay plate according to the plate map. Add 15 μL of the DMSO-medium into the Blank and Control wells. The final DMSO concentration was 0.25%. The assay is performed similar to the protocol of the bile duct cancer study provided above.

[5] = system: primary tumor cells freshly isolated from PC-07-0024 patient derived xenograft (PDX) tumor model; experiment: Pancreatic cancer tumor chemosensitivity assay (TCA), anti-proliferation, PC-07-0024; format: cell-based; conditions: for IC50: Homo sapiens
Protocol: as §3
as §2, with “The study was performed as follows. Add 195” for “Add 195”
as §4

[6] = Cytotoxicity, CellTiter-Glo Luminescent Cell Viability Assay; conditions: human, LX-2 cells
Protocol: as §1

[7] = 4 ng/mL TGF-b, 48 hours, read-out: Inhibition of Collagen Production in LX-2 Cells IC50
[8] = 72 h, read-out: Relative IC50 (μM)
[9] = 144 h, read-out: Relative IC50 (μM)

Cc1ccc2c(Nc3cc(CN4CCCC4)cc(C(F)(F)F)c3)noc2c1C#Cc1cnc2cccnn12 [Compound 113]
IC50 [1, 7]: 2580 nM | CC50 [2]: 4250 nM

Cc1ccc2c(Nc3cc(CN4CCOCC4)cc(C(C)(C)C#N)c3)noc2c1C#Cc1cnc2cccnn12 [Compound 117]
IC50 [1, 7]: 160 nM | CC50 [2]: > 57200 nM

Cc1ccc2c(Nc3cncc(C(F)(F)F)c3)noc2c1C#Cc1cnc2cccnn12 [Compound 121]
IC50 [1, 7]: 62 nM | IC50 ([3]; Day 3, read-out: IC50): > 30000 nM | IC50 ([3]; Day 6, read-out: IC50): 29100 nM | Max (%) ([3]; Day 3): 49.93% | Min (%) ([3]; Day 3): −11.42% | Max (%) ([3]; Day 6): 51.14% | Min (%) ([3]; Day 6): −18.96% | CC50 [2]: > 40000 nM

Cc1ccc2c(Nc3cc(CNC4CC4)cc(C(F)(F)F)c3)noc2c1C#Cc1cnc2cccnn12 [Compound 112]
IC50 [1, 7]: 1660 nM | CC50 [2]: 1360 nM

Nc1ccn([C@@H]2O[C@H](CO)[C@@H](O)C2(F)F)c(=O)n1 [Gemcitabine]
IC50 ([4]; 72 h, LU-01-0523, Day 3, read-out: Relative IC50): > 30 µM | IC50 ([4]; 144 h, LU-01-0523, Day 6, read-out: Relative IC50): 1.34 µM | Bottom (%) ([4]; LU-01-0523, Day 3): 4.79% | Top (%) ([4]; LU-01-0523, Day 3): 100.00% | Bottom (%) ([4]; LU-01-0523, Day 6): 0.00% | Top (%) ([4]; LU-01-0523, Day 6): 100.00% | IC50 ([5]; 72 h, PC-07-0024, Day 3, read-out: Relative IC50): 4 µM | IC50 ([5]; 144 h, PC-07-0024, Day 6, data exclsn, read-out: Relative IC50): 0.009 µM | IC50 ([5]; 144 h, PC-07-0024, Day 6, read-out: Relative IC50): 5.93 µM | Bottom (%) ([5]; PC-07-0024, Day 3): 10.21% | Top (%) ([5]; PC-07-0024, Day 3): 46.53% | Bottom (%) ([5]; PC-07-0024, Day 6): 23.38% | Top (%) ([5]; PC-07-0024, Day 6): 72.30% | Bottom (%) ([5]; PC-07-0024, Day 6, data exclsn): 0.00% | Top (%) ([5]; PC-07-0024, Day 6, data exclsn): 30.34%

Cc1ccc2c(Nc3cccc(OC(F)(F)F)c3)noc2c1C#Cc1cnc2cccnn12 [Compound 120]
IC50 [1, 7]: 2950 nM | CC50 [2]: 2410 nM

Cc1ccc2c(Nc3cccc(C(F)(F)F)c3)noc2c1C#Cc1cnc2cccnn12 [Compound 1, 7-(Imidazo[1,2-b]pyridazin-3-ylethynyl)-6-methyl-N-(3-(trifluoromethyl)phenyl)benzo[d]isoxazol-3-amine]
IC50 [4, 8]: > 30 µM | IC50 [4, 9]: > 30 µM | Bottom (%) ([4]; LU-01-0523, Day 3): −5.49% | Top (%) ([4]; LU-01-0523, Day 3): 100.00% | Bottom (%) ([4]; LU-01-0523, Day 6): −16.14% | Top (%) ([4]; LU-01-0523, Day 6): 0.00% | IC50 ([1]; Homo sapiens, LX-2, 48 h, read-out: Inhibition of Collagen Production in LX-2 Cells IC50(nM)): 13 nM | IC50 ([3]; Homo sapiens, 72 h): > 30000 nM | IC50 ([3]; Homo sapiens, 144 h): > 30000 nM | Max (%) ([3]; Day 3): 2.56% | Min (%) ([3]; Day 3): −8.75% | Max (%) ([3]; Day 6): 2.88% | Min (%) ([3]; Day 6): −27.04% | IC50 [5, 8]: 5.7 µM | IC50 [5, 9]: 2.65 µM | Bottom (%) ([5]; PC-07-0024, Day 3): −11.36% | Top (%) ([5]; PC-07-0024, Day 3): 42.29% | Bottom (%) ([5]; PC-07-0024, Day 6): −26.68% | Top (%) ([5]; PC-07-0024, Day 6): 37.60% | CC50 at 72 h [6]: 3000 nM

Cc1nc(Nc2ncc(C(=O)Nc3c(C)cccc3Cl)s2)cc(N2CCN(CCO)CC2)n1 [Dasatinib, reference compound]
IC50 ([3]; Homo sapiens, 72 h, Day 3, read-out: IC50): 22400 nM | IC50 ([3]; Homo sapiens, 144 h, Day 6, read-out: IC50): 15200 nM | Max (%) ([3]; Day 3): 66.18% | Min (%) ([3]; Day 3): 8.00% | Max (%) ([3]; Day 6): 89.06% | Min (%) ([3]; Day 6): 14.03%

Cc1ccc2c(Nc3cccc(C(C)(C)C#N)c3)noc2c1C#Cc1cnc2cccnn12 [Compound 115]
IC50 [1, 7]: 502 nM | CC50 [2]: 1900 nM

Cc1ccc2c(Nc3cc(CN4CCOCC4)cc(C(F)(F)F)c3)noc2c1C#Cc1cnc2cccnn12 [Compound 111]
IC50 [1, 7]: 1950 nM | CC50 [2]: > 42300 nM
